# Data: PubChem BioAssay (NCI)
#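 Following 48 hours of exposure in 96-well plates, responses at five concentrations were used to interpolate endpoints linearly. GI50 = concentration required for 50% inhibition of growth. TGI marks complete inhibition of growth.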
# Columns and labels:
# Experiment in all cases: NCI anticancer screen, dose series, 48 h
# ACHN renal = system: ACHN renal
# UACC-62 melanoma = system: UACC-62 melanoma
# HS 578T breast = system: HS 578T breast
# IGROV1 ovarian = system: IGROV1 ovarian
# T-47D breast = system: T-47D breast
# EKVX NSCLC = system: EKVX NSCLC
# K-562 leukemia = system: K-562 leukemia
# SF-539 CNS = system: SF-539 CNS
# A549 NSCLC = system: A549 NSCLC
# MCF7 breast = system: MCF7 breast
# MDA-MB-435 = system: MDA-MB-435
# HL-60(TB) leukemia = system: HL-60(TB) leukemia
# M14 melanoma = system: M14 melanoma
# SF-268 CNS = system: SF-268 CNS
# SF-295 CNS = system: SF-295 CNS
# SK-MEL-5 melanoma = system: SK-MEL-5 melanoma
# LOX IMVI melanoma = system: LOX IMVI melanoma
# NCI-H522 lung = system: NCI-H522 lung
# SNB-75 CNS = system: SNB-75 CNS
# SW-620 colon = system: SW-620 colon
# HCC-2998 colon = system: HCC-2998 colon
# SK-MEL-28 melanoma = system: SK-MEL-28 melanoma
# SN12C renal = system: SN12C renal
# RXF 393 renal = system: RXF 393 renal
# OVCAR-4 ovarian = system: OVCAR-4 ovarian
# COLO 205 colon = system: COLO 205 colon
# MOLT-4 leukemia = system: MOLT-4 leukemia
# OVCAR-8 ovarian = system: OVCAR-8 ovarian
# BT-549 breast = system: BT-549 breast
# NCI-H460 lung = system: NCI-H460 lung
# SNB-19 CNS = system: SNB-19 CNS
# HCT-15 colon = system: HCT-15 colon
# MDA-MB-231 breast = system: MDA-MB-231 breast
# NCI/ADR-RES ovarian = system: NCI/ADR-RES ovarian
# U251 CNS = system: U251 CNS
# SK-OV-3 ovarian = system: SK-OV-3 ovarian
# OVCAR-3 ovarian = system: OVCAR-3 ovarian
# PC-3 prostate = system: PC-3 prostate
# DU-145 prostate = system: DU-145 prostate
# RPMI-8226 leukemia = system: RPMI-8226 leukemia
# TK-10 renal = system: TK-10 renal
# HCT-116 colon = system: HCT-116 colon
# KM12 colon = system: KM12 colon
# OVCAR-5 ovarian = system: OVCAR-5 ovarian
# HOP-62 NSCLC = system: HOP-62 NSCLC
# UO-31 renal = system: UO-31 renal
# SK-MEL-2 melanoma = system: SK-MEL-2 melanoma
# CAKI-1 renal = system: CAKI-1 renal
# 786-0 renal = system: 786-0 renal
# A498 renal = system: A498 renal
# HT29 colon = system: HT29 colon
# MALME-3M melanoma = system: MALME-3M melanoma
# CCRF-CEM leukemia = system: CCRF-CEM leukemia
# UACC-257 melanoma = system: UACC-257 melanoma
# NCI-H226 lung = system: NCI-H226 lung
# NCI-H23 lung = system: NCI-H23 lung
smiles,measurement,setting,value
O=C(O)c1ccc(Oc2nccc(-c3c(-c4ccc(F)cc4)ncn3C3CCNCC3)n2)cc1,GI50,ACHN renal,> 25 µM
same,TGI,ACHN renal,> 25 µM
same,GI50,UACC-62 melanoma,> 25 µM
same,TGI,UACC-62 melanoma,> 25 µM
same,GI50,HS 578T breast,> 25 µM
same,TGI,HS 578T breast,> 25 µM
same,GI50,IGROV1 ovarian,> 25 µM
same,TGI,IGROV1 ovarian,> 25 µM
same,GI50,T-47D breast,> 25 µM
same,TGI,T-47D breast,> 25 µM
same,GI50,EKVX NSCLC,> 25 µM
same,TGI,EKVX NSCLC,> 25 µM
same,GI50,K-562 leukemia,> 25 µM
same,TGI,K-562 leukemia,> 25 µM
same,GI50,SF-539 CNS,> 25 µM
same,TGI,SF-539 CNS,> 25 µM
same,GI50,A549 NSCLC,> 25 µM
same,TGI,A549 NSCLC,> 25 µM
same,GI50,MCF7 breast,> 25 µM
same,TGI,MCF7 breast,> 25 µM
same,GI50,MDA-MB-435,> 25 µM
same,TGI,MDA-MB-435,> 25 µM
same,GI50,HL-60(TB) leukemia,> 25 µM
same,TGI,HL-60(TB) leukemia,> 25 µM
same,GI50,M14 melanoma,> 25 µM
same,TGI,M14 melanoma,> 25 µM
same,GI50,SF-268 CNS,> 25 µM
same,TGI,SF-268 CNS,> 25 µM
same,GI50,SF-295 CNS,> 25 µM
same,TGI,SF-295 CNS,> 25 µM
same,GI50,SK-MEL-5 melanoma,> 25 µM
same,TGI,SK-MEL-5 melanoma,> 25 µM
same,GI50,LOX IMVI melanoma,> 25 µM
same,TGI,LOX IMVI melanoma,> 25 µM
same,GI50,NCI-H522 lung,> 25 µM
same,TGI,NCI-H522 lung,> 25 µM
same,GI50,SNB-75 CNS,> 25 µM
same,TGI,SNB-75 CNS,> 25 µM
same,GI50,SW-620 colon,> 25 µM
same,TGI,SW-620 colon,> 25 µM
same,GI50,HCC-2998 colon,> 25 µM
same,TGI,HCC-2998 colon,> 25 µM
same,GI50,SK-MEL-28 melanoma,> 25 µM
same,TGI,SK-MEL-28 melanoma,> 25 µM
same,GI50,SN12C renal,> 25 µM
same,TGI,SN12C renal,> 25 µM
same,GI50,RXF 393 renal,> 25 µM
same,TGI,RXF 393 renal,> 25 µM
same,GI50,OVCAR-4 ovarian,> 25 µM
same,TGI,OVCAR-4 ovarian,> 25 µM
same,GI50,COLO 205 colon,> 25 µM
same,TGI,COLO 205 colon,> 25 µM
same,GI50,MOLT-4 leukemia,> 25 µM
same,TGI,MOLT-4 leukemia,> 25 µM
same,GI50,OVCAR-8 ovarian,> 25 µM
same,TGI,OVCAR-8 ovarian,> 25 µM
same,GI50,BT-549 breast,> 25 µM
same,TGI,BT-549 breast,> 25 µM
same,GI50,NCI-H460 lung,> 25 µM
same,TGI,NCI-H460 lung,> 25 µM
same,GI50,SNB-19 CNS,> 25 µM
same,TGI,SNB-19 CNS,> 25 µM
same,GI50,HCT-15 colon,> 25 µM
same,TGI,HCT-15 colon,> 25 µM
same,GI50,MDA-MB-231 breast,> 25 µM
same,TGI,MDA-MB-231 breast,> 25 µM
same,GI50,NCI/ADR-RES ovarian,> 25 µM
same,TGI,NCI/ADR-RES ovarian,> 25 µM
same,GI50,U251 CNS,> 25 µM
same,TGI,U251 CNS,> 25 µM
same,GI50,SK-OV-3 ovarian,> 25 µM
same,TGI,SK-OV-3 ovarian,> 25 µM
same,GI50,OVCAR-3 ovarian,> 25 µM
same,TGI,OVCAR-3 ovarian,> 25 µM
same,GI50,PC-3 prostate,> 25 µM
same,TGI,PC-3 prostate,> 25 µM
same,GI50,DU-145 prostate,> 25 µM
same,TGI,DU-145 prostate,> 25 µM
same,GI50,RPMI-8226 leukemia,> 25 µM
same,TGI,RPMI-8226 leukemia,> 25 µM
same,GI50,TK-10 renal,> 25 µM
same,TGI,TK-10 renal,> 25 µM
same,GI50,HCT-116 colon,> 25 µM
same,TGI,HCT-116 colon,> 25 µM
same,GI50,KM12 colon,> 25 µM
same,TGI,KM12 colon,> 25 µM
same,GI50,OVCAR-5 ovarian,> 25 µM
same,TGI,OVCAR-5 ovarian,> 25 µM
same,GI50,HOP-62 NSCLC,> 25 µM
same,TGI,HOP-62 NSCLC,> 25 µM
same,GI50,UO-31 renal,> 25 µM
same,TGI,UO-31 renal,> 25 µM
same,GI50,SK-MEL-2 melanoma,> 25 µM
same,TGI,SK-MEL-2 melanoma,> 25 µM
same,GI50,CAKI-1 renal,> 25 µM
same,TGI,CAKI-1 renal,> 25 µM
same,GI50,786-0 renal,> 25 µM
same,TGI,786-0 renal,> 25 µM
same,GI50,A498 renal,> 25 µM
same,TGI,A498 renal,> 25 µM
same,GI50,HT29 colon,> 25 µM
same,TGI,HT29 colon,> 25 µM
same,GI50,MALME-3M melanoma,> 25 µM
same,TGI,MALME-3M melanoma,> 25 µM
Cc1cc(-c2nc3sccn3c2/C=N/N=C(N)N)c(C)s1,GI50,ACHN renal,19.1 µM
same,TGI,ACHN renal,36.8 µM
same,GI50,UACC-62 melanoma,14.9 µM
same,TGI,UACC-62 melanoma,28.2 µM
same,GI50,T-47D breast,17.5 µM
same,TGI,T-47D breast,32.8 µM
same,GI50,EKVX NSCLC,10.5 µM
same,TGI,EKVX NSCLC,23.4 µM
same,GI50,K-562 leukemia,15.1 µM
same,TGI,K-562 leukemia,39.1 µM
same,GI50,SF-539 CNS,14.3 µM
same,TGI,SF-539 CNS,28.5 µM
same,GI50,A549 NSCLC,25.5 µM
same,TGI,A549 NSCLC,51 µM
same,GI50,MDA-MB-435,13.3 µM
same,TGI,MDA-MB-435,26.1 µM
same,GI50,HL-60(TB) leukemia,15.6 µM
same,TGI,HL-60(TB) leukemia,> 100 µM
same,GI50,M14 melanoma,15.8 µM
same,TGI,M14 melanoma,29.3 µM
same,GI50,SF-268 CNS,16.6 µM
same,TGI,SF-268 CNS,31.7 µM
same,GI50,SF-295 CNS,13.5 µM
same,TGI,SF-295 CNS,26.3 µM
same,GI50,SK-MEL-5 melanoma,14.6 µM
same,TGI,SK-MEL-5 melanoma,30 µM
same,GI50,LOX IMVI melanoma,16.4 µM
same,TGI,LOX IMVI melanoma,30.5 µM
same,GI50,NCI-H522 lung,15.7 µM
same,TGI,NCI-H522 lung,32 µM
same,GI50,SNB-75 CNS,15 µM
same,TGI,SNB-75 CNS,30.2 µM
same,GI50,SW-620 colon,21.8 µM
same,TGI,SW-620 colon,54.5 µM
same,GI50,SK-MEL-28 melanoma,16.5 µM
same,TGI,SK-MEL-28 melanoma,31.5 µM
same,GI50,SN12C renal,15.7 µM
same,TGI,SN12C renal,30.9 µM
same,GI50,CCRF-CEM leukemia,16.6 µM
same,TGI,CCRF-CEM leukemia,48 µM
same,GI50,OVCAR-4 ovarian,16.2 µM
same,TGI,OVCAR-4 ovarian,35.3 µM
same,GI50,MOLT-4 leukemia,17.6 µM
same,TGI,MOLT-4 leukemia,60.7 µM
same,GI50,OVCAR-8 ovarian,29.4 µM
same,TGI,OVCAR-8 ovarian,57 µM
same,GI50,UACC-257 melanoma,18.9 µM
same,TGI,UACC-257 melanoma,36.2 µM
same,GI50,BT-549 breast,18.5 µM
same,TGI,BT-549 breast,33.3 µM
same,GI50,NCI-H226 lung,15.4 µM
same,TGI,NCI-H226 lung,31.7 µM
same,GI50,NCI-H460 lung,16.8 µM
same,TGI,NCI-H460 lung,30.4 µM
same,GI50,SNB-19 CNS,16.2 µM
same,TGI,SNB-19 CNS,32.8 µM
same,GI50,HCT-15 colon,16.4 µM
same,TGI,HCT-15 colon,30 µM
same,GI50,MDA-MB-231 breast,15.3 µM
same,TGI,MDA-MB-231 breast,29 µM
same,GI50,NCI/ADR-RES ovarian,17.4 µM
same,TGI,NCI/ADR-RES ovarian,31.6 µM
same,GI50,U251 CNS,18 µM
same,TGI,U251 CNS,32.9 µM
same,GI50,NCI-H23 lung,17.7 µM
same,TGI,NCI-H23 lung,33.7 µM
same,GI50,SK-OV-3 ovarian,17.5 µM
same,TGI,SK-OV-3 ovarian,32.3 µM
same,GI50,OVCAR-3 ovarian,13.2 µM
same,TGI,OVCAR-3 ovarian,26 µM
same,GI50,PC-3 prostate,13.4 µM
same,TGI,PC-3 prostate,26.3 µM
same,GI50,DU-145 prostate,14.2 µM
same,TGI,DU-145 prostate,27.8 µM
same,GI50,RPMI-8226 leukemia,13.3 µM
same,TGI,RPMI-8226 leukemia,33.2 µM
same,GI50,TK-10 renal,17.4 µM
same,TGI,TK-10 renal,31.5 µM
same,GI50,HCT-116 colon,12.7 µM
same,TGI,HCT-116 colon,25.3 µM
same,GI50,KM12 colon,13.3 µM
same,TGI,KM12 colon,26.1 µM
same,GI50,OVCAR-5 ovarian,14 µM
same,TGI,OVCAR-5 ovarian,26.9 µM
same,GI50,HOP-62 NSCLC,17.4 µM
same,TGI,HOP-62 NSCLC,32.1 µM
same,GI50,UO-31 renal,21.1 µM
same,TGI,UO-31 renal,36.9 µM
same,GI50,786-0 renal,15.7 µM
same,TGI,786-0 renal,29.1 µM
same,GI50,A498 renal,18.8 µM
same,TGI,A498 renal,33.9 µM
same,GI50,HT29 colon,15.6 µM
same,TGI,HT29 colon,33.8 µM
